From PMC10916352, “Safety Evaluation of a Prototypical Diazirine-Based Covalent Crosslinker and Molecular Adhesive” (International Journal of Toxicology, 2023)
Where “and” joins values, the source holds several entries; their conditions need not be identical. Identical values can stand only once.

Tests used:
[1] = In vitro skin corrosion test, MTT viability; conditions: human, EpiDerm Skin Model (reconstructed human epidermis)
Description: (§7) The skin corrosion test was performed to assess the cytotoxic effects of BondLynx immediately following short-term exposure to the stratum corneum of the epidermis using an in vitro skin model.[32]–[34] Cytotoxicity to the skin model was expressed as the reduction of mitochondrial dehydrogenase activity measured by formazan production from 3-(4,5-dimethylthiazol-2-yl)-2,5-diphenyl tetrazolium bromide (MTT). […] BondLynx was checked for direct MTT reduction by incubating at least 50 mg of BondLynx with 1 mL MTT for 3 h to ensure that no blue/purple colour change or precipitate occurred. BondLynx was tested for colour interference by incubating at least 50 mg of BondLynx in water for 1 h and isopropanol for 2-3 h, centrifuging for 30 s at 16,000 g, and measuring the OD570 to ensure an optical density ≤.08 (after subtracting a Milli-Q water blank).
(§8) Incubations were performed at 37.0-37.3°C, in an atmosphere with 77%-95% humidity containing 5.0 ± .5% CO2 in air unless otherwise stated. The positive control was 8.0 N aqueous potassium hydroxide (KOH) solution, and the negative control was Milli-Q water. BondLynx was applied directly to the test system as a solid and spread to match the size of the tissue. Tests were performed in duplicate.
(§9) Skin tissue samples were refrigerated for 1 day upon receipt before placing in a six-well plate with .9 mL supplemented DMEM (just enough to reach the bottom of the tissue) 1 h before testing. A total of four samples were prepared per test item by applying 50 μL of the positive or negative control, or 25 μL of Milli-Q water (to moisten the tissue and ensure close contact) followed by 34.2-39.8 mg of BondLynx. Two samples of each test item were incubated for 3 min at room temperature, while the remaining samples were incubated for 1 h. After exposure, tissues were washed with phosphate buffered saline, dried carefully, and stored in 300 μL DMEM in a 24 well plate until the full six-well plate was dosed and rinsed.
(§10) Cell viability after incubation was determined by replacing the DMEM with 300 μL MTT in supplemented DMEM (1 mg/mL) and incubating for 3 h. Tissues were then washed with phosphate buffer saline, and formazan was extracted with 2 mL isopropanol overnight. The amount of extracted formazan was measured in triplicate for each sample by the OD570.
(§11) Optical density readings were corrected by subtracting the mean blank OD570. Cell viability was calculated as the percentage of the mean corrected OD570 for the test compound relative to the mean OD570 for the negative control (% Viability = ODtest/ODnegative control × 100%).

[2] = tested on: EpiDerm Skin Model (human-derived epidermal keratinocytes); test: In vitro skin corrosion test, MTT viability; conditions: for OD570 / OD570 corrected: tissues A and B, triplicate readings
Description: as §7, §8, §9, §10, §11

[3] = tested on: EPISKIN Small Model (human epidermis model); test: In vitro skin irritation test, MTT viability; type: cell-based
Description: (§1) Tests were performed in triplicate. […] Following exposure, samples were rinsed with phosphate buffered saline until no test item remain, dried carefully, and placed in a new 2 mL well with pre-warmed Maintenance Medium to incubate for 42 h. After incubation, cell culture inserts were dried carefully, transferred into a 12-well plate prefilled with 2 mL MTT in phosphate buffered saline (.3 mg/mL), and incubated for 3 h. Tissue samples were then dried, and a biopsy punch was taken. The epidermis was separated from the collagen matrix, and both were extracted with 500 μL isopropanol and stored for 70 h refrigerated. The amount of extracted formazan was measured in duplicate for each sample by the OD570.

[4] = In vitro skin irritation test, MTT viability; type: cell-based, human; conditions: human; 15 min exposure, 42 h post-incubation, relative to phosphate buffered saline; read-out: Cell Viability (%)
Description: as §1

[5] = 3T3 Neutral Red uptake cytotoxicity and phototoxicity assay; conditions: mouse, Balb/c 3T3 fibroblasts (clone 31); for viability: Viability of cells over all tested concentrations, .316 to 1000 μg/mL
Description: (§2) The 3T3 Neutral Red uptake assay was used to evaluate the phototoxicity of BondLynx. The NRU assay makes use of Neutral Red dye, a weak cationic dye that penetrates the cell membrane by non-ionic passive diffusion and accumulates in lysosomes. Cytotoxicity of the test material is evaluated by measuring the OD540 to assess the uptake of Neutral Red dye.[28],[29] […] By measuring cytotoxicity in the absence vs presence of UV and visible light, the phototoxicity of the test material can be determined.[30],[31]
(§3) Cells were routinely trypsinized and passaged, at least once weekly, with a split ratio 1:3 to 1:4 to achieve a near confluent culture.
(§4) Stock solutions of both controls were freshly prepared on the day of testing. The vehicle control was 1% DMSO in EBSS for the positive control, EBSS for the negative control, and .5% ethanol in EBSS for BondLynx. BondLynx was dissolved in ethanol for testing. […] All controls and BondLynx were handled in the dark and tested in 8-fold.
(§5) In preparation for testing, cultures of 3T3 fibroblasts were trypsinized and resuspended in culture medium. […] A total of six plates were prepared in this manner – two each for the positive control, the negative control, and BondLynx. Following incubation, the cell culture medium was removed, and the wells washed with DPBS (Dulbecco’s phosphate-buffered saline). A 200 μL aliquot of each dilution of the test compound (BondLynx or a control) was added the first eight columns, and the appropriate vehicle control was added to the last four columns. All plates were incubated an additional 60 min before irradiating one plate for each test compound (+Irr) in a solar simulator with a WG320 nm filter for 22 min (equivalent to 5 J/cm^2 UV-A), while the second plate for each test compound (–Irr) was kept in the dark at room temperature. Subsequently, the test solutions were removed from the plates, and the cells were washed once with DPBS and suspended in 200 μL of supplemented DMEM to incubate for an additional 20-24 h.
(§6) Immediately following incubation, the confluency of each plate was visually assessed, and the culture medium was replaced with 100 μL of Neutral Red dye (50 μg/mL). The plates were incubated another 3.5 h before removing the dye, washing with 150 μL of DPBS, and shaking for 20-40 min in 150 μL Neutral Red destain solution (ethanol:acetic acid:distilled water, 50:1:49). The optical density at 540 nm was measured for each well and corrected by subtracting the appropriate blank.

[6] = tested on: Balb/c 3T3 fibroblasts (clone 31); test: as above; conditions: for Corrected Mean OD540: 8 wells
Description: as §2, §3, §4, §5, §6

With `FC(F)(F)C1(c2ccc(C(c3ccc(C4(C(F)(F)F)N=N4)cc3)(C(F)(F)F)C(F)(F)F)cc2)N=N1` [BondLynx, 2,2-bis-[4-[3-(trifluoromethyl)-3H-diazirin-3-yl]phenyl]hexafluoropropane] as the compound, how does the viability at 3 min [1] read?
The viability at 3 min was 101%.

And the viability at 1 h [1]?
Its viability at 1 h is 95%.

And the “Mean ± SD (OD570 corrected)” value ([2]; 3 min exposure)?
The value was 1.7 ± 0.1.

And the OD570 ([2]; 3 min exposure)?
The OD570 was 1.8819 and 1.869 and 1.8445 and 1.7365 and 1.7069 and 1.7026.

What about the OD570 corrected ([2]; 3 min exposure) of the same compound?
Its OD570 corrected is 1.837 and 1.8241 and 1.7996 and 1.6916 and 1.662 and 1.6577.

What about the “Mean ± SD (OD570 corrected)” value ([2]; 1 h exposure) of the same compound?
Its value is 1.85 ± .09.

And the OD570 ([2]; 1 h exposure)?
The OD570 was 1.9919 and 1.9396 and 1.9528 and 1.8727 and 1.8128 and 1.8033.

What about the OD570 corrected ([2]; 1 h exposure) of the same compound?
The OD570 corrected was 1.947 and 1.8947 and 1.9079 and 1.8278 and 1.7679 and 1.7584.

What about the Skin corrosion classification ([2]; viability >50% after 3 min and >15% after 1 h) of the same compound?
The Skin corrosion classification was “not corrosive”.

What about the “Mean ± SD (OD570 corrected)” value ([3]; 15 min exposure, 42 h post-incubation) of the same compound?
The value was 1.019 ± .011.

What about the OD570 ([3]; 15 min exposure, 42 h post-incubation, tissues A-C, duplicate readings) of the same compound?
The OD570 was 1.0621 and 1.0517 and 1.0668 and 1.0420 and 1.0901 and 1.0602.

And the Skin irritation classification ([3]; viability >50%)?
The Skin irritation classification was “non-irritant”.

What about the viability at 15 min [4] of the same compound?
Its viability at 15 min is 106%.

What about the viability at 82 min, 0.316 μg/mL ([5]; Viability (%), +Irr) of the same compound?
The viability at 82 min, 0.316 μg/mL was 101%.

What about the viability at 82 min, 1 μg/mL ([5]; Viability (%), +Irr) of the same compound?
Its viability at 82 min, 1 μg/mL is 99.6%.

And the viability at 82 min, 3.16 μg/mL ([5]; Viability (%), +Irr)?
The viability at 82 min, 3.16 μg/mL was 101%.

And the viability at 82 min, 10 μg/mL ([5]; Viability (%), +Irr)?
The viability at 82 min, 10 μg/mL was 103%.

What about the viability at 82 min, 31.6 μg/mL ([5]; Viability (%), +Irr) of the same compound?
Its viability at 82 min, 31.6 μg/mL is 106%.

And the viability at 100 μg/mL ([5]; Viability (%), +Irr, 100 μg/mL)?
The viability at 100 μg/mL was 110%.

What about the viability at 82 min, 316 μg/mL ([5]; Viability (%), +Irr) of the same compound?
The viability at 82 min, 316 μg/mL was 111%.

What about the viability at 82 min, 1000 μg/mL ([5]; Viability (%), +Irr) of the same compound?
Its viability at 82 min, 1000 μg/mL is 105%.

And the viability at 82 min, 0.316 μg/mL ([5]; Viability (%), –Irr)?
Its viability at 82 min, 0.316 μg/mL is 102%.

And the viability at 82 min, 1 μg/mL ([5]; Viability (%), –Irr)?
The viability at 82 min, 1 μg/mL was 101%.

And the viability at 82 min, 3.16 μg/mL ([5]; Viability (%), –Irr)?
Its viability at 82 min, 3.16 μg/mL is 100%.

And the viability at 82 min, 10 μg/mL ([5]; Viability (%), –Irr)?
The viability at 82 min, 10 μg/mL was 97.4%.

And the viability at 82 min, 31.6 μg/mL ([5]; Viability (%), –Irr)?
The viability at 82 min, 31.6 μg/mL was 98.3%.

And the viability at 82 min, 100 μg/mL ([5]; Viability (%), –Irr, 100 μg/mL)?
Its viability at 82 min, 100 μg/mL is 100%.

What about the viability at 82 min, 316 μg/mL ([5]; Viability (%), –Irr) of the same compound?
The viability at 82 min, 316 μg/mL was 101%.

And the viability at 82 min, 1000 μg/mL ([5]; Viability (%), –Irr)?
Its viability at 82 min, 1000 μg/mL is 93%.

What about the viability ([5]; Irr+) of the same compound?
The viability was 105 ± 4%.

And the viability ([5]; Irr−)?
Its viability is 99 ± 3%.

And the Phototoxicity classification ([6]; 3T3 NRU phototoxicity test)?
The Phototoxicity classification was “non-phototoxic”.

And the “Corrected Mean OD540” value ([6]; +Irr, 0.316 μg/mL)?
The value was 1.135.

And the “Corrected Mean OD540” value ([6]; +Irr, 1 μg/mL)?
The value was 1.116.

And the “Corrected Mean OD540” value ([6]; +Irr, 3.16 μg/mL)?
The value was 1.13.

What about the “Corrected Mean OD540” value ([6]; +Irr, 10 μg/mL) of the same compound?
The value was 1.149.

And the “Corrected Mean OD540” value ([6]; +Irr, 31.6 μg/mL)?
The value was 1.19.

What about the “Corrected Mean OD540” value ([6]; +Irr, 100 μg/mL) of the same compound?
The value was 1.236.

What about the “Corrected Mean OD540” value ([6]; +Irr, 316 μg/mL) of the same compound?
The value was 1.24.

And the “Corrected Mean OD540” value ([6]; +Irr, 1000 μg/mL)?
Its value is 1.18.

What about the “IC50 (50% inhibition of Neutral Red uptake), presence of irradiation” value ([6]; +Irr, 5 J/cm^2 UV-A) of the same compound?
The value was “no IC50”.

What about the “Photo Irritation Factor (PIF)” value ([6]; non-irradiated IC50 divided by irradiated IC50) of the same compound?
The value was “no PIF could be calculated”.

What about the Cytotoxicity ([6]; presence and absence of UV-A, .316 to 1000 μg/mL) of the same compound?
The Cytotoxicity was “no cytotoxicity”.

What about the “IC50 (50% inhibition of Neutral Red uptake), absence of irradiation” value ([6]; –Irr) of the same compound?
Its value is “no IC50”.

And the “Corrected Mean OD540” value ([6]; –Irr, 0.316 μg/mL)?
Its value is 1.17.

And the “Corrected Mean OD540” value ([6]; –Irr, 1 μg/mL)?
Its value is 1.16.

And the “Corrected Mean OD540” value ([6]; –Irr, 3.16 μg/mL)?
Its value is 1.15.

And the “Corrected Mean OD540” value ([6]; –Irr, 10 μg/mL)?
Its value is 1.12.

What about the “Corrected Mean OD540” value ([6]; –Irr, 31.6 μg/mL) of the same compound?
The value was 1.13.

And the “Corrected Mean OD540” value ([6]; –Irr, 100 μg/mL)?
The value was 1.15.

And the “Corrected Mean OD540” value ([6]; –Irr, 316 μg/mL)?
The value was 1.16.

What about the “Corrected Mean OD540” value ([6]; –Irr, 1000 μg/mL) of the same compound?
Its value is 1.07.
